The text below walks through data of patent publication US20080085884A1, “Melanin Concentrating Hormone Receptor-1 Antagonist Pyridinones” (Pfizer Inc, priority 2006, published 2008).

pKi: −log10 of the molar value.

In this experiment the target is T1, human MCHR1 (Homo sapiens, UniProt Q99705).
T1 construct: host or cells: CHO
T1 sequence (Q99705 whole entry): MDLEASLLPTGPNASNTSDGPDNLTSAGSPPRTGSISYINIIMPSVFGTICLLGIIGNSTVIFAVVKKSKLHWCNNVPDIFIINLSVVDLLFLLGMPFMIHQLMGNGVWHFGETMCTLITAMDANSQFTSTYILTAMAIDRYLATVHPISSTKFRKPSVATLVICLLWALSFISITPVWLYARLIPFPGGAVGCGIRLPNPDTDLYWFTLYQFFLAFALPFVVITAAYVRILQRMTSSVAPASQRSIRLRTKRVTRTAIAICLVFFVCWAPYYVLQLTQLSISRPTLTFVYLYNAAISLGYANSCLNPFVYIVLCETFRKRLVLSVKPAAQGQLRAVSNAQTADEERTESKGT
Nature of the experiment: Cyclic AMP assay (MCHR-1 functional antagonism). In kind it is cell-based. The settings on record: CHO cells stably expressing human MCHR1; cAMP accumulation with 25 uM forskolin and 0.2 nM MCH, 90 min; Ki from IC50 by Cheng-Prusoff; read-out: MCHR-1 functional Ki. The procedure:
CHO cell lines stably expressing the human MCHR1 (Euroscreen, Brussels, Belgium) were maintained in DMEM containing Glutamax (Invitrogen, Carlsbad, Calif.), 10% FBS, 400 ug/ml Geneticin.
Cyclic AMP assays. CHO cells stably expressing the human MCHR1 receptors were collected and resuspended at a density of 4.0×10^6 cells/ml in F12 (Hams) media and seeded (20,000 cells per well) into 384-well, solid white Greiner assay plates. […] Cells were incubated at 37° C./5% CO2 for 90 minutes and cAMP accumulation subsequently determined by DiscoveRx Hithunter c-AMP II Assay kit (GE Healthcare, Buckinghamshire, UK) in accordance with manufactures instructions. Luminescence was measured on a LEADseaker imaging system (GE Healthcare, Buckinghamshire, UK). IC50 values were calculated from dose-response data fit using an in-house computer graphics and statistics program.
(In general: cAMP levels reflect the balance of adenylyl cyclase and phosphodiesterase activity.)
Broadly, the pKi is the negative decadic logarithm of the Ki, by convention in mol/L. In the case of `O=c1cc(OCc2ccccc2)ccn1-c1ccc(N2CCCCC2)nc1` [Example 110], the pKi is 7.38.

In the case of `CNC1CN(c2ccc(-n3ccc(OCc4ccccc4)cc3=O)cn2)C1` [Example 111], the pKi was 6.79.

With `CNC1CN(c2ccc(-n3ccc(OCc4ccc(F)cc4)cc3=O)cn2)C1` [Example 112], the pKi is 6.74.

For `O=c1cc(OCc2ccc(F)cc2)ccn1-c1ccc(N2CC[C@@H](O)C2)nc1` [Example 113], the pKi was 7.30.

Consider `O=c1cc(OCc2ccc(F)cc2)ccn1-c1ccc(N2CC[C@H](O)C2)nc1` [Example 114], for which the pKi is 7.32.

As to `O=c1cc(OCc2ccc(F)cc2)ccn1-c1ccc(N2CCC(O)CC2)nc1` [Example 115], the pKi is 7.00.

As to `O=c1cc(OCc2ccc(F)cc2)ccn1-c1ccc(N2CCCC2)nc1` [Example 116], the negative logarithm of the Ki (pKi) was 7.57.

Take `N[C@H]1CCN(c2ccc(-n3ccc(OCc4ccc(F)cc4)cc3=O)cn2)C1` [Example 118]: the pKi was 7.94.

As to `CN[C@H]1CCN(c2ccc(-n3ccc(COc4ccccc4)cc3=O)cn2)C1` [Example 122], the pKi was 6.96.

Consider `O=c1cc(OCc2cccc(Cl)c2)ccn1-c1ccc(N2CC[C@@H](O)C2)nc1` [Example 144], for which the pKi is 7.16.

As to `O=c1cc(OCc2ccccc2Cl)ccn1-c1ccc(N2CC[C@@H](O)C2)nc1` [Example 145], the pKi was 7.01.

For the compound `O=c1cc(OCc2ccc(Cl)c(F)c2)ccn1-c1ccc(N2CC[C@@H](O)C2)nc1` [Example 146], the pKi is 7.22.

Take `O=c1cc(OCc2ccc(Cl)cc2F)ccn1-c1ccc(N2CC[C@@H](O)C2)nc1` [Example 147]: the pKi is 7.58.

Consider `O=c1cc(OCc2ccc(F)c(F)c2)ccn1-c1ccc(N2CC[C@@H](O)C2)nc1` [Example 148], for which the pKi was 6.90.

For `CN[C@H]1CCN(c2ccc(-n3ccc(OCc4cccc(Cl)c4)cc3=O)cn2)C1` [Example 149], the pKi was 8.46.

With `CN[C@H]1CCN(c2ccc(-n3ccc(OCc4ccc(F)c(F)c4)cc3=O)cn2)C1` [Example 150], the pKi was 8.46.

For `CN[C@H]1CCN(c2ccc(-n3ccc(OCc4ccccc4Cl)cc3=O)cn2)C1` [Example 151], the pKi was 8.22.

Take `CN[C@H]1CCN(c2ccc(-n3ccc(OCc4ccc(Cl)c(F)c4)cc3=O)cn2)C1` [Example 152]: the pKi was 8.64.

Consider `CN[C@H]1CCN(c2ccc(-n3ccc(OCc4ccc(Cl)cc4F)cc3=O)cn2)C1` [Example 153], for which the pKi was 8.69.

Turning to `CN(C(=O)OC(C)(C)C)[C@H]1CCN(c2ccc(-n3ccc(OCc4ccccc4)cc3=O)nn2)C1` [Example 156], the pKi was 6.64.

Regarding `O=c1cc(OCc2ccccc2)ccn1-c1ccc(N2CC[C@@H](O)C2)nn1` [Example 157], the pKi was 5.50.

`CC(=O)N1C[C@@H]2CN(c3ccc(-n4ccc(OCc5ccccc5)cc4=O)cn3)C[C@@H]2C1` [Example 158]: the pKi is 7.30.

For `CCN(C(C)=O)[C@@H]1CCN(c2ccc(-n3ccc(OCc4ccccc4)cc3=O)cn2)C1` [Example 160], the pKi was 7.57.

Regarding `CCN(C(C)=O)[C@H]1CCN(c2ccc(-n3ccc(OCc4ccccc4)cc3=O)cn2)C1` [Example 161], the pKi was 7.48.

Consider `CC(=O)N[C@H]1CCN(c2ccc(-n3ccc(OCc4ccccc4)cc3=O)cn2)C1` [Example 162], for which the pKi is 7.51.

`CC(=O)N1C[C@@H]2CN(c3ccc(-n4ccc(OCc5ccc(F)cc5)cc4=O)cn3)C[C@@H]2C1` [Example 164]: the pKi is 7.18.

`CC(=O)N(C)C1CCN(c2ccc(-n3ccc(OCc4ccccc4)cc3=O)cn2)CC1` [Example 165]: the pKi is 7.53.

With `CC(C)C(=O)N1CCN(c2ccc(-n3ccc(OCc4ccccc4)cc3=O)cn2)CC1` [Example 166], the pKi is 5.92.

Consider `CCC(=O)N1CCN(c2ccc(-n3ccc(OCc4ccccc4)cc3=O)cn2)CC1` [Example 167], for which the pKi is 6.13.

Consider `CCC(=O)N1CCN(c2ccc(-n3ccc(OCc4ccc(F)cc4)cc3=O)cn2)CC1` [Example 168], for which the pKi is 6.27.
